Assay results as given in US7098199B2 (Sterix Limited, priority 1991, dated 2006).
Like-named read-outs stand apart in the source and are kept apart here. Each block holds one molecule with its values, some of them ahead of it.

Key:
Steroid sulphatase [1] = biological target: T1, Steroid sulphatase (Rattus norvegicus, UniProt P15589); assay: Steroid sulphatase activity in liver microsome preparations from rats treated subcutaneously; type: in vivo; parameters: except that the tissue source was rat liver; from tissue; host or cells: liver of female Wistar rats; conditions: 10 mg/kg/day s.c. for 7 days, rat liver microsomes, mean ± 1 S.D., n = 3
T1 sequence (P15589 20-577): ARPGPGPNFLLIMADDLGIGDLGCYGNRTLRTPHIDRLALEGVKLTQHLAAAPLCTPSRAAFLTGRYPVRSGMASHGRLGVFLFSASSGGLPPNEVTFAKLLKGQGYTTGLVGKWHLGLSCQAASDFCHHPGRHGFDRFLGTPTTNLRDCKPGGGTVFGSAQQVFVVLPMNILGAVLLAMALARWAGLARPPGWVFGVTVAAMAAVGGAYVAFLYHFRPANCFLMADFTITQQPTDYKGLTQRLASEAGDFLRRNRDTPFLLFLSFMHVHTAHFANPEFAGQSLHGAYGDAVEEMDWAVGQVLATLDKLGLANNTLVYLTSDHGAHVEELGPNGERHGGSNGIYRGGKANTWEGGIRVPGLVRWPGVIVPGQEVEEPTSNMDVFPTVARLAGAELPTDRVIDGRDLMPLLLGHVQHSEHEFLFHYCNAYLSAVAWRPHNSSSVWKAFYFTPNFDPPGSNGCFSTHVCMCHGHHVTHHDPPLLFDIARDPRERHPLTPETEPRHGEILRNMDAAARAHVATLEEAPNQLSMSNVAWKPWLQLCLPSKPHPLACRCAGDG

oestrone sulphatase [2] = biological target: T2, oestrone sulphatase (Homo sapiens, UniProt P08842); assay: Oestrone sulphatase inhibition in placental microsomes by flavanoid sulphamates; type: biochemical
T2 sequence (P08842 22-583): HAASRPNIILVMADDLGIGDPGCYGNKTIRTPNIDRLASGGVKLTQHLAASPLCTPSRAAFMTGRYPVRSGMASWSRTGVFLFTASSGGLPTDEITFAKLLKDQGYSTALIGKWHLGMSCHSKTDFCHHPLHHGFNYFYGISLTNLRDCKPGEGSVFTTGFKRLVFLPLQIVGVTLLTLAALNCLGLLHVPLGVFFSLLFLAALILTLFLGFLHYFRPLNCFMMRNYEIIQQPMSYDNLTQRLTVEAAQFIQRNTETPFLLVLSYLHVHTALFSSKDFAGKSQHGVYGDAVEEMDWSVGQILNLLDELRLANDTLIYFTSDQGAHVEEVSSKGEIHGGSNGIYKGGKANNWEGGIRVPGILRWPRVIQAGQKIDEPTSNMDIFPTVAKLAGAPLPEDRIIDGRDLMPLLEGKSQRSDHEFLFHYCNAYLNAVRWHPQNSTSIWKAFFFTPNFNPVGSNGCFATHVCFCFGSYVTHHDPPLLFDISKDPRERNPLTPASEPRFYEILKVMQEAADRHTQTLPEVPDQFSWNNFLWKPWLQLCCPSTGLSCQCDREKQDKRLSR

[3] = biological target: T3, Steroid sulphatase (Steryl Sulphatase EC3.1.6.2) (Homo sapiens, UniProt P08842); assay: Steroid sulphatase activity in intact MCF-7 cells; type: cell-based; conditions: for inhibition at 10 µM: MCF7; for Steroid Sulphatase Activity: mean ± 1 S.D.
T3 construct: endogenous in cells; host or cells: MCF-7 human breast cancer cells
T3 sequence (P08842 22-583): T2 sequence (P08842 22-583)
Description: Steroid sulphatase is defined as: Steryl Sulphatase EC3.1.6.2.
Steroid sulphatase activity was measured in vitro using intact MCF-7 human breast cancer cells. This hormone dependent cell line is widely used to study the control of human breast cancer cell growth. […] Cells were maintained in Minimal Essential Medium (MEM) (Flow Laboratories, Irvine, Scotland) containing 20 mM HEPES, 5% foetal bovine serum, 2 mM glutamine, nonessential amino acids and 0.075% sodium bicarbonate. Up to 30 replicate 25 cm^2 tissue culture flasks were seeded with approximately 1×10^5 cells/flask using the above medium. Cells were grown to 80% confluency and medium was changed every third day.
Each batch of experiments included incubations of microsomes prepared from a sulphatase-positive human placenta (positive control) and flasks without cells (to assess apparent non-enzymatic hydrolysis of the substrate). The number of cell nuclei per flask was determined using a Coulter Counter after treating the cell monolayers with Zaponin. One flask in each batch was used to assess cell membrane status and viability using the Trypan Blue exclusion method (Phillips, H. J. (1973) In: Tissue culture and applications,[eds: Kruse, D. F. & Patterson, M. K.]; pp. 406–408; Academic Press, New York).
Unpaired Student's t-test was used to test the statistical significance of results.
An identical experimental protocol to that described in Example 4 was used to generate results for oestrone-3-N,N-diimethylsulphamate except that incubations contained oestrone-3-N,N-dimethylsulphaiate (5 concentrations: 0; 0.001 μM; 0.01 μM; 0.1 μM; 1 μM) in place of oestrone-3-sulphamate.

Steroid sulphatase [4] = biological target: T1, Steroid sulphatase; assay: % inhibition in vivo from a single dose (Example 9); parameters: from tissue; host or cells: tissue of treated animals; tissue not given; conditions: single dose of 10 mg/kg
Steroid sulphatase [5] = biological target: T4, Steroid sulphatase (Homo sapiens, UniProt P08842); assay: Steroid sulphatase activity in placental microsomes; conditions: 10 μM
T4 sequence (P08842 22-583): T2 sequence (P08842 22-583)

oestrone sulphatase [6] = biological target: T2, oestrone sulphatase
oestrone sulphatase [7] = biological target: T2, oestrone sulphatase; type: cell-based
[8] = biological target: T3, Steroid sulphatase (Steryl Sulphatase EC3.1.6.2); assay: Steroid sulphatase activity in MCF-7 cells pre-incubated with inhibitor and washed; type: cell-based; conditions: pre-treatment 2 hours with 0.1 μM, cells washed 3 times
[9] = concentration tested 1 mM (so in the source)
[10] = concentration tested 10 mM (so in the source)
[11] = concentration tested 25 mM (so in the source)
[12] = concentration tested 50 mM (so in the source)
[13] = concentration tested 100 mM (so in the source)

- Steroid Sulphatase Activity (Steroid sulphatase [1]; assay substrate DHA-S): 1.71 ± 0.1 nmol/30 min/200 mg protein
- Steroid Sulphatase Activity (Steroid sulphatase [1]; assay substrate E1-S): 20.6 ± 0.4 nmol/30 min/200 mg protein
Molecule: C[C@]12CC[C@@H]3c4ccc(OS(=O)(=O)O)cc4CC[C@H]3[C@@H]1CCC2=O [E1-S, Oestrone-3-sulphate, reference compound]

- inhibition at 10 µM [3]: 99 ± 2%
- % Inhibition in vivo from a single dose of 10 mg/kg (Steroid sulphatase [4]): 22±3%
- % Inhibition in Placental Microsomes at 10 μM (Steroid sulphatase [5]): 40±2%
Molecule: NS(=O)(=O)Oc1ccccc1[N+](=O)[O-] [9c, 2-Nitrophenol-O-sulfamate]

- inhibition at 10 µM [3]: 99 ± 2%
- melting point: > 42 °C (dec.)
- % Inhibition in vivo from a single dose of 10 mg/kg (Steroid sulphatase [4]): 22±3%
- % Inhibition in Placental Microsomes at 10 μM (Steroid sulphatase [5]): 40±2%
Molecule: CCCCCCCOc1ccc(OS(N)(=O)=O)cc1 [9a]

- % INHIBITION Sulphatase (oestrone sulphatase [2]; 1 μM): 26.8%
- % INHIBITION Sulphatase (oestrone sulphatase [2]; 10 μM): 89.5%
Molecule: flavone-6-sulphamate

- % INHIBITION Sulphatase (oestrone sulphatase [2]; 1 μM): 8%
- % INHIBITION Sulphatase (oestrone sulphatase [2]; 10 μM): 21%
Molecule: 5-hydroxy-flavone-7-sulphamate [5-hydroxy flavone-7-sulphamate]

- % reduction over control (% inhibition) ([3]; inhibitor 0.001 μM): 17.3%
- Steroid Sulphatase Activity ([3]; inhibitor 0.001 μM): 68.33 ± 3.2 fmol/20 hr/10^6 cells
- % reduction over control (% inhibition) ([3]; inhibitor 0.01 μM): 44.3%
- Steroid Sulphatase Activity ([3]; inhibitor 0.01 μM, n = 3): 46.0 ± 4.9 fmol/20 hr/10^6 cells
- % reduction over control (% inhibition) ([3]; inhibitor 0.1 μM): 78.9%
- Steroid Sulphatase Activity ([3]; inhibitor 0.1 μM, n = 3): 17.43 ± 4.3 fmol/20 hr/10^6 cells
- % reduction over control (% inhibition) ([3]; inhibitor 1 μM): 85.6%
- Steroid Sulphatase Activity ([3]; inhibitor 1 μM, n = 3): 11.89 ± 3.7 fmol/20 hr/10^6 cells
- % reduction over control (% inhibition) [8]: 18.8%
- Steroid Sulphatase Activity ([8]; mean ± 1 S.D., n = 3): 53.1 ± 3.4 fmol/20 hr/10^6 cells
Molecule: CN(C)S(=O)(=O)Oc1ccc2c(c1)CC[C@@H]1[C@@H]2CC[C@]2(C)C(=O)CC[C@@H]12 [Oestrone-3-N,N-dimethylsulphamate, oestrone-3-N.N-dimethylsulphamate]

- inhibition at 10 µM [3]: 99 ± 2%
- % Inhibition in vivo from a single dose of 10 mg/kg (Steroid sulphatase [4]): 22±3%
- % Inhibition in Placental Microsomes at 10 μM (Steroid sulphatase [5]): 40±2%
Molecule: COc1cc(CNC(=O)CCCC/C=C/C(C)C)ccc1OS(N)(=O)=O [9b, (E) Methyl-γ-methyl-6-nonenamide-N-(3-methboxyphenyl4-O-sulphanate)]

- % Inhibition MCF-7 Cells (oestrone sulphatase [7]; 0.1 μM): 23%
- % Inhibition MCF-7 Cells (oestrone sulphatase [7]; 1.0 μM): 83%
- % Inhibition MCF-7 Cells (oestrone sulphatase [7]; 10.0 μM): 99%
Molecule: NS(=O)(=O)Oc1ccc(-c2coc3cc(O)cc(O)c3c2=O)cc1 [Isoflavone 5.7-dihydroxy-4′-sulphamate, 5,7-Dihydroxy Isoflavone-4′-O-Sulphamate]

Second part, the molecule before the results:

Molecule: NS(=O)(=O)Oc1ccc(C2CC(=O)c3c(O)cc(O)cc3O2)cc1 (centres unmarked) [5,7-dihydroxy flavanone 4′-sulphamate, 5.7-Dihydroxyflavanone 4′-O-sulphamate]
- % INHIBITION Sulphatase (oestrone sulphatase [2]; 0.1 μM): 30.4%
- % INHIBITION Sulphatase (oestrone sulphatase [2]; 1 μM): 79.1%
- % INHIBITION Sulphatase (oestrone sulphatase [2]; 10 μM): 98.1%
- % INHIBITION Sulphatase (oestrone sulphatase [2]; 10 μM, listed as 5,7-dihydroxy flavanone-4′-sulphamate): 98%

Molecule: COc1ccc(-c2coc3cc(OS(N)(=O)=O)cc(O)c3c2=O)cc1 [5-Hydroxy-4′-methoxyisoflavone 7-O-sulphamate]
- % INHIBITION Sulphatase (oestrone sulphatase [2]; 1 μM): 1%
- % INHIBITION Sulphatase (oestrone sulphatase [2]; 10 μM): 50.6%

Molecule: C=CCc1cc2c(cc1OS(N)(=O)=O)CC[C@@H]1[C@@H]2CC[C@]2(C)C(=O)CC[C@@H]12 [2-allyl EMATE]
- % Inhibition (Mean) Placental Microsomes (oestrone sulphatase [6]; [9]): 45.6%
- % Inhibition (Mean) Placental Microsomes (oestrone sulphatase [6]; [10]): 65.4%
- % Inhibition (Mean) Placental Microsomes (oestrone sulphatase [6]; [11]): 75.3%
- % Inhibition (Mean) Placental Microsomes (oestrone sulphatase [6]; [12]): 86.6%
- % Inhibition (Mean) Placental Microsomes (oestrone sulphatase [6]; [13]): 89.6%

Molecule: NS(=O)(=O)Oc1ccc(-c2coc3cc(OS(N)(=O)=O)cc(O)c3c2=O)cc1 [Isoflavone 5-hydroxy-4′,7-bissulphamate, 5-Hydroxy Isoflavone4′-O,O-Disulphamate]
- % Inhibition MCF-7 Cells (oestrone sulphatase [7]; 0.1 μM): 28%

Molecule: COc1cc2c(cc1OS(N)(=O)=O)CC[C@@H]1[C@@H]2CC[C@]2(C)C(=O)CC[C@@H]12 [2-methoxy EMATE]
- % Inhibition (Mean) Placental Microsomes (oestrone sulphatase [6]; [10]): 99.0%
- % Inhibition (Mean) Placental Microsomes (oestrone sulphatase [6]; [12]): 99.7%
- % Inhibition (Mean) Placental Microsomes (oestrone sulphatase [6]; [13]): 99.7%

Molecule: CCCc1cc2c(cc1OS(N)(=O)=O)CC[C@@H]1[C@@H]2CC[C@]2(C)C(=O)CC[C@@H]12 [2-n-propyl EMATE]
- % Inhibition (Mean) Placental Microsomes (oestrone sulphatase [6]; [9]): 21.9%
- % Inhibition (Mean) Placental Microsomes (oestrone sulphatase [6]; [10]): 43.2%
- % Inhibition (Mean) Placental Microsomes (oestrone sulphatase [6]; [11]): 47.5%
- % Inhibition (Mean) Placental Microsomes (oestrone sulphatase [6]; [12]): 61.1%
- % Inhibition (Mean) Placental Microsomes (oestrone sulphatase [6]; [13]): 69.2%

Molecule: flavone-7-sulphamate
- % INHIBITION Sulphatase (oestrone sulphatase [2]; 50 μM): 56.3%
- % INHIBITION Sulphatase (oestrone sulphatase [2]; 100 μM): 75.3%

Molecule: C=CCc1c(OS(N)(=O)=O)ccc2c1CC[C@@H]1[C@@H]2CC[C@]2(C)C(=O)CC[C@@H]12 [4-allyl EMATE]
- % Inhibition (Mean) Placental Microsomes (oestrone sulphatase [6]; [9]): 29.1%
- % Inhibition (Mean) Placental Microsomes (oestrone sulphatase [6]; [10]): 54.2%
- % Inhibition (Mean) Placental Microsomes (oestrone sulphatase [6]; [11]): 59.0%
- % Inhibition (Mean) Placental Microsomes (oestrone sulphatase [6]; [12]): 65.1%
- % Inhibition (Mean) Placental Microsomes (oestrone sulphatase [6]; [13]): 71.9%

Molecule: C[C@]12CC[C@@H]3c4cc([N+](=O)[O-])c(OS(N)(=O)=O)cc4CC[C@H]3[C@@H]1CCC2=O [2-nitro EMATE]
- % Inhibition (Mean) Placental Microsomes (oestrone sulphatase [6]; concentration tested 0.05 mM (so in the source)): 44.5%
- % Inhibition (Mean) Placental Microsomes (oestrone sulphatase [6]; concentration tested 0.5 mM (so in the source)): 93.9%
- % Inhibition (Mean) Placental Microsomes (oestrone sulphatase [6]; concentration tested 5 mM (so in the source)): 99.0%
- % Inhibition (Mean) Placental Microsomes (oestrone sulphatase [6]; [12]): 99.4%

Molecule: CCCc1c(OS(N)(=O)=O)ccc2c1CC[C@@H]1[C@@H]2CC[C@]2(C)C(=O)CC[C@@H]12 [4-n-propyl EMATE]
- % Inhibition (Mean) Placental Microsomes (oestrone sulphatase [6]; [9]): 13.7%
- % Inhibition (Mean) Placental Microsomes (oestrone sulphatase [6]; [10]): 10.2%
- % Inhibition (Mean) Placental Microsomes (oestrone sulphatase [6]; [11]): 15.7%
- % Inhibition (Mean) Placental Microsomes (oestrone sulphatase [6]; [12]): 16.3%
- % Inhibition (Mean) Placental Microsomes (oestrone sulphatase [6]; [13]): 23.7%
